Structures can show the parent of a compound that is named as a salt.
Target: human 5-HT3 serotonin receptors (Homo sapiens (Human), UniProt P46098)
Experiment: [3H]BRL 43694 competition binding
Conditions: CHO cell membranes, [3H]BRL 43694, Cheng Prusoff; read-out: h-5HT3 Ki

Chain of human 5-HT3 serotonin receptors (P46098 24-478): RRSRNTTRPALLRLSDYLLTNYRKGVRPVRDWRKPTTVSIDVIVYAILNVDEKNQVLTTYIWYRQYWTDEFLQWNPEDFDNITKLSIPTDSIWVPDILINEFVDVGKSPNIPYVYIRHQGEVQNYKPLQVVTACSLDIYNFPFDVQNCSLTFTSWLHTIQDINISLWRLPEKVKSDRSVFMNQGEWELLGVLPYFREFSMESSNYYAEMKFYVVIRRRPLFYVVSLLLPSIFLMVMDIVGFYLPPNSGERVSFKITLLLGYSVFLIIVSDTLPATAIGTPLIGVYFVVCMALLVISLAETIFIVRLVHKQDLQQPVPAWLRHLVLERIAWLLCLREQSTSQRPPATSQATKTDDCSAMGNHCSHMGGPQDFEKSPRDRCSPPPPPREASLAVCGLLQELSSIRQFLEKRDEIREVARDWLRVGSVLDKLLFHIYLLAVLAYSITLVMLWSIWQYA

| SMILES | Ki [nM] |
| --- | --- |
| CC1(C)[C@H](NC(=O)c2cc3cccc(CC(F)(F)F)c3s2)C2CCN1CC2 [(R)-127, (R)—N-(2,2-dimethylquinuclidin-3-yl)-7-(2,2,2-trifluoroethyl)benzo[b]thiophene-2-carboxamide hydrochloride] | 1100 |
| CC1(C)[C@H](NC(=O)c2cc3cccc(-c4nccs4)c3s2)C2CCN1CC2 [(R)-129, (R)—N-(2,2-dimethylquinuclidin-3-yl)-7-(thiazol-2-yl)benzo[b]thiophene-2-carboxamide hydrochloride] | 440 |
| CC1(C)[C@H](NC(=O)c2cc3cccc(-c4ccccc4)c3s2)C2CCN1CC2 [(R)-132, (R)—N-(2,2-dimethylquinuclidin-3-yl)-7-phenylbenzo[b]thiophene-2-carboxamide hydrochloride] | 100 |
| CC1(c2cccc3cc(C(=O)N[C@@H]4C5CCN(CC5)C4(C)C)sc23)CC1 [(R)-133, (R)—N-(2,2-dimethylquinuclidin-3-yl)-7-(1-methylcyclopropyl)benzo[b]thiophene-2-carboxamide hydrochloride] | 400 |
| Cc1ccc2cc(C(=O)N[C@@H]3C4CCN(CC4)C3(C)C)sc2c1C1CC1 [(R)-140, (R)-7-cyclopropyl-N-(2,2-dimethylquinuclidin-3-yl)-6-methylbenzo[b]thiophene-2-carboxamide hydrochloride] | 22000 |
| COCc1cccc2cc(C(=O)N[C@@H]3C4CCN(CC4)C3(C)C)sc12 [(R)-143, (R)—N-(2,2-dimethylquinuclidin-3-yl)-7-(methoxymethyl)benzo[b]thiophene-2-carboxamide hydrochloride] | 740 |
| O=C(N[C@@H]1C2CCN(CC2)C12CC2)c1cc2ccc(Cl)c(C(F)(F)F)c2s1 [(R)-152, (R)-6-chloro-N-(1′-azaspiro[cyclopropane-1,2′-bicyclo[2.2.2]octan]-3′-yl)-7-(trifluoromethyl)benzo[b]thiophene-2-carboxamide hydrochloride] | > 10000 |
| COc1ccc2cc(C(=O)N[C@@H]3C4CCN(CC4)C34CC4)sc2c1Cl [(R)-154, (R)-7-chloro-6-methoxy-N-(1′-azaspiro[cyclopropane-1,2′-bicyclo[2.2.2]octan]-3′-yl)benzo[b]thiophene-2-carboxamide hydrochloride] | 6200 |
| N#Cc1cccc2cc(C(=O)N[C@@H]3C4CCN(CC4)C34CC4)sc12 [(R)-160, (R)-7-cyano-N-(1′-azaspiro[cyclopropane-1,2′-bicyclo[2.2.2]octan]-3′-yl)benzo[b]thiophene-2-carboxamide hydrochloride] | 260 |
| O=C(N[C@@H]1C2CCN(CC2)C12CC2)c1cc2cccc(C3CC3)c2s1 [(R)-165, (R)-7-cyclopropyl-N-(1′-azaspiro[cyclopropane-1,2′-bicyclo[2.2.2]octan]-3′-yl)benzo[b]thiophene-2-carboxamide hydrochloride] | 200 |
| CC(C)c1cccc2cc(C(=O)N[C@@H]3C4CCN(CC4)C34CC4)sc12 [(R)-166, (R)-7-isopropyl-N-(1′-azaspiro[cyclopropane-1,2′-bicyclo[2.2.2]octan]-3′-yl)benzo[b]thiophene-2-carboxamide hydrochloride] | 325 |
| O=C(N[C@@H]1C2CCN(CC2)C12CC2)c1cc2cccc(OC(F)(F)F)c2s1 [(R)-167, (R)—N-(1′-azaspiro[cyclopropane-1,2′-bicyclo[2.2.2]octan]-3′-yl)-7-(trifluoromethoxy)benzo[b]thiophene-2-carboxamide hydrochloride] | 895 |
| O=C(N[C@@H]1C2CCN(CC2)C12CC2)c1cc2ccccc2[nH]1 [(R)-170, (R)—N-(1′-azaspiro[cyclopropane-1,2′-bicyclo[2.2.2]octan]-3′-yl)-1H-indole-2-carboxamide hydrochloride] | 800 |
| O=C(N[C@@H]1C2CCN(CC2)C12CC2)c1cc2cc(F)c(Cl)cc2s1 [(R)-172, (R)-6-chloro-5-fluoro-N-(1′-azaspiro[cyclopropane-1,2′-bicyclo[2.2.2]octan]-3′-yl)benzo[b]thiophene-2-carboxamide hydrochloride] | 4900 |
| COc1cc2sc(C(=O)N[C@@H]3C4CCN(CC4)C34CC4)cc2cc1F [(R)-173, (R)-5-fluoro-6-methoxy-N-(1′-azaspiro[cyclopropane-1,2′-bicyclo[2.2.2]octan]-3′-yl)benzo[b]thiophene-2-carboxamide hydrochloride] | > 10000 |
| O=C(N[C@@H]1C2CCN(CC2)C12CC2)c1cc2cc(F)c(Cl)c(F)c2s1 [(R)-175, (R)-6-chloro-5,7-difluoro-N-(1′-azaspiro[cyclopropane-1,2′-bicyclo[2.2.2]octan]-3′-yl)benzo[b]thiophene-2-carboxamide hydrochloride] | > 10000 |
| Cc1cccc2cc(C(=O)N[C@@H]3C4CCN(CC4)C34CC4)sc12 [(R)-176, (R)-7-methyl-N-(1′-azaspiro[cyclopropane-1,2′-bicyclo[2.2.2]octan]-3′-yl)benzo[b]thiophene-2-carboxamide hydrochloride] | 130 |

| SMILES | Ki [nM] |
| --- | --- |
| O=C(N[C@@H]1C2CCN(CC2)C12CC2)c1cc2cccc(CC(F)(F)F)c2s1 [(R)-177, (R)—N-(1′-azaspiro[cyclopropane-1,2′-bicyclo[2.2.2]octan]-3′-yl)-7-(2,2,2-trifluoroethyl)benzo[b]thiophene-2-carboxamide hydrochloride] | 690 |
| CN(C)c1cccc2cc(C(=O)N[C@@H]3C4CCN(CC4)C34CC4)sc12 [(R)-178, (R)-7-(dimethylamino)-N-(1′-azaspiro[cyclopropane-1,2′-bicyclo[2.2.2]octan]-3′-yl)benzo[b]thiophene-2-carboxamide hydrochloride] | 400 |
| O=C(N[C@@H]1C2CCN(CC2)C12CC2)c1cc2cccc(-c3nccs3)c2s1 [(R)-181, (R)—N-(1′-azaspiro[cyclopropane-1,2′-bicyclo[2.2.2]octan]-3′-yl)-7-(thiazol-2-yl)benzo[b]thiophene-2-carboxamide hydrochloride] | 83 |
| O=C(N[C@@H]1C2CCN(CC2)C12CC2)c1ccc2oc(C3CC3)cc2c1 [(R)-183, (R)-2-cyclopropyl-N-(1′-azaspiro[cyclopropane-1,2′-bicyclo[2.2.2]octan]-3′-yl)benzofuran-5-carboxamide hydrochloride] | > 10000 |
| CC(C)(C)c1cccc2cc(C(=O)N[C@@H]3C4CCN(CC4)C34CC4)sc12 [(R)-184, (R)-7-(tert-butyl)-N-(1′-azaspiro[cyclopropane-1,2′-bicyclo[2.2.2]octan]-3′-yl)benzo[b]thiophene-2-carboxamide hydrochloride] | 110 |
| O=C(N[C@@H]1C2CCN(CC2)C12CC2)c1cc2cccc(-c3ccccc3)c2s1 [(R)-186, (R)-7-phenyl-N-(1′-azaspiro[cyclopropane-1,2′-bicyclo[2.2.2]octan]-3′-yl)benzo[b]thiophene-2-carboxamide hydrochloride] | 30 |
| CC1(c2cccc3cc(C(=O)N[C@@H]4C5CCN(CC5)C45CC5)sc23)CC1 [(R)-188, (R)-7-(1-methylcyclopropyl)-N-(1′-azaspiro[cyclopropane-1,2′-bicyclo[2.2.2]octan]-3′-yl)benzo[b]thiophene-2-carboxamide-hydrochloride] | 200 |
| CCOc1ccc2cc(C(=O)N[C@@H]3C4CCN(CC4)C34CC4)sc2c1 [(R)-189, (R)-6-ethoxy-N-(1′-azaspiro[cyclopropane-1,2′-bicyclo[2.2.2]octan]-3′-yl)benzo[b]thiophene-2-carboxamide hydrochloride] | > 10000 |
| CCOc1cccc2cc(C(=O)N[C@@H]3C4CCN(CC4)C34CC4)sc12 [(R)-190, (R)-7-ethoxy-N-(1′-azaspiro[cyclopropane-1,2′-bicyclo[2.2.2]octan]-3′-yl)benzo[b]thiophene-2-carboxamide hydrochloride] | 290 |
| CC(C)Oc1cccc2cc(C(=O)N[C@@H]3C4CCN(CC4)C34CC4)sc12 [(R)-191, (R)-7-isopropoxy-N-(1′-azaspiro[cyclopropane-1,2′-bicyclo[2.2.2]octan]-3′-yl)benzo[b]thiophene-2-carboxamide hydrochloride] | 160 |
| COc1c(Cl)ccc2cc(C(=O)N[C@@H]3C4CCN(CC4)C34CC4)sc12 [(R)-192, (R)-6-chloro-7-methoxy-N-(1′-azaspiro[cyclopropane-1,2′-bicyclo[2.2.2]octan]-3′-yl)benzo[b]thiophene-2-carboxamide hydrochloride] | > 10000 |
| COc1c(C)ccc2cc(C(=O)N[C@@H]3C4CCN(CC4)C34CC4)sc12 [(R)-193, (R)-7-methoxy-6-methyl-N-(1′-azaspiro[cyclopropane-1,2′-bicyclo[2.2.2]octan]-3′-yl)benzo[b]thiophene-2-carboxamide hydrochloride] | 6000 |
| O=C(N[C@@H]1C2CCN(CC2)C12CC2)c1n[nH]c2ccccc12 [(R)-194, (R)—N-(1′-azaspiro[cyclopropane-1,2′-bicyclo[2.2.2]octan]-3′-yl)-1H-indazole-3-carboxamide hydrochloride] | 79 |
| Cc1ccc2cc(C(=O)N[C@@H]3C4CCN(CC4)C34CC4)sc2c1C1CC1 [(R)-196, (R)-7-cyclopropyl-6-methyl-N-(1′-azaspiro[cyclopropane-1,2′-bicyclo[2.2.2]octan]-3′-yl)benzo[b]thiophene-2-carboxamide hydrochloride] | 610 |
| COc1c(F)ccc2cc(C(=O)N[C@@H]3C4CCN(CC4)C34CC4)sc12 [(R)-197, (R)-6-fluoro-7-methoxy-N-(1′-azaspiro[cyclopropane-1,2′-bicyclo[2.2.2]octan]-3′-yl)benzo[b]thiophene-2-carboxamide hydrochloride] | 2800 |
| Cc1ccc2cc(C(=O)N[C@@H]3C4CCN(CC4)C34CC4)sc2c1C#N [(R)-198, (R)-7-cyano-6-methyl-N-(1′-azaspiro[cyclopropane-1,2′-bicyclo[2.2.2]octan]-3′-yl)benzo[b]thiophene-2-carboxamide hydrochloride] | > 10000 |
| COCc1cccc2cc(C(=O)N[C@@H]3C4CCN(CC4)C34CC4)sc12 [(R)-199, (R)-7-(methoxymethyl)-N-(1′-azaspiro[cyclopropane-1,2′-bicyclo[2.2.2]octan]-3′-yl)benzo[b]thiophene-2-carboxamide hydrochloride] | 580 |

— patent publication US10183938B2, “Geminal substituted quinuclidine amide compounds as agonists of α-7 nicotonic acetylcholine receptors” (AXOVANT SCIENCES GMBH, priority 2014, dated 2019)
